Experimental findings from ChEMBL document CHEMBL1177713, “Discovery of 3-[2-(imidazo[1,2-b]pyridazin-3-yl)ethynyl]-4-methyl-N-{4-[(4-methylpiperazin-1-yl)methyl]-3-(trifluoromethyl)phenyl}benzamide (AP24534), a potent, orally active pan-inhibitor of breakpoint cluster region-abelson (BCR-ABL) kinase including the T315I gatekeeper mutant” (J Med Chem, 2010) are described below.

In series [1] the test system is BaF3. As to the kind of experiment: cells. Particulars: Mus musculus, BaF3, 72 h.
Description: Antiproliferative activity against mouse BA/F3 cells expressing ABL T315I mutant after 3 days by MTS assay
The test system of series [2] is K562. As to the kind of experiment: cells. Particulars: Homo sapiens, K562, 72 h.
Description: Antiproliferative activity against human K562 cells expressing wild type ABL after 3 days by MTS assay
Series [3] can be described thus: Clearance in CD rat at 5 mg/kg, iv by LC-MS/MS analysis. Format: ADME, organism-based. The settings on record: in vivo. Set-up: dose 5 mg/kg, route intravenous.
Series [4] can be described thus: Volume of distribution in CD rat at 5 mg/kg, iv by LC-MS/MS analysis. Particulars: in vivo. Format: ADME, organism-based. More on the design: dose 5 mg/kg, route intravenous.
Series [5] is described as follows: Half life in CD rat at 5 mg/kg, iv by LC-MS/MS analysis. The settings on record: in vivo. Format: ADME, organism-based. Set-up: dose 5 mg/kg, route intravenous.
Series [6] deals with Rattus norvegicus. Description: Dose normalized AUC (0 to 24 hrs) in CD rat at 15 mg/kg, po by LC-MS/MS analysis. Format: ADME, organism-based. More on the design: time < 24 hr, dose 15 mg/kg, route oral. Particulars: in vivo.
The nature of series [7]: (§1) Cmax in CD rat at 15 mg/kg, po by LC-MS/MS analysis. The series is classed as ADME, organism-based. The settings on record: CD, in vivo. More on the design: dose 15 mg/kg, route oral.
The nature of series [8]: Tmax in CD rat at 15 mg/kg, po by LC-MS/MS analysis. The series is classed as ADME, organism-based. More on the design: dose 15 mg/kg, route oral. The settings on record: in vivo.
Series [9] in a line: Half life in CD rat at 15 mg/kg, po by LC-MS/MS analysis. Format: ADME, organism-based. Set-up: dose 15 mg/kg, route oral. Particulars: in vivo.
A short description of series [10]: Oral bioavailability in CD rat at 15 mg/kg by LC-MS/MS analysis. The settings on record: in vivo. The series is classed as ADME, organism-based.
Series [11] relates to BaF3. Description: cells. Particulars: Mus musculus, BaF3, 72 h. The source holds these as a separate data set.
Description: Antiproliferative activity against mouse BA/F3 cells expressing wild type ABL after 3 days by MTS assay
Series [12] relates to BaF3. Description: cells. Particulars: Mus musculus, BaF3, 72 h. The source holds these as a separate data set.
Description: Antiproliferative activity against mouse BA/F3 cells after 3 days by MTS assay
For series [13], the system named is Mus musculus. As to the kind of experiment: Plasma concentration in mouse at 30 mg/kg, po after 24 hrs by LC-MS/MS analysis.
Series [14] relates to Mus musculus. As to the kind of experiment: Plasma concentmouseion in CD mouse at 30 mg/kg, po after 2 hrs by LC-MS/MS analysis.
Series [15] concerns Mus musculus. As to the kind of experiment: Plasma concentmouseion in CD mouse at 30 mg/kg, po after 6 hrs by LC-MS/MS analysis.
A short description of series [16]: Cmax in mouse at 30 mg/kg, po by LC-MS/MS analysis. The settings on record: in vivo.
Series [17] can be described thus: Half life in mouse at 30 mg/kg, po by LC-MS/MS analysis. Particulars: in vivo.
Series [18] can be described thus: AUC (0 to 24 hrs) in mouse at 30 mg/kg, po by LC-MS/MS analysis. Particulars: plasma.
Series [19] has as its system Rattus norvegicus. The series is described as §1. The series is classed as ADME, organism-based. Set-up: dose 15 mg/kg, route oral. Particulars: in vivo, BLD = below limit of detection.
Series [20] has as its system BaF3. Description: cells. Particulars: Mus musculus, BaF3, 72 h. This is another data set of the same source.
Description: Antiproliferative activity against mouse BA/F3 cells expressing wild type ABL after 3 days by MTS assay in presence of 340 uM human serum albumin

In general, IC50 refers to the concentration at which inhibition is half-maximal. A high value points to a need for much substance. Regarding `Cc1cn(-c2cc(NC(=O)c3ccc(C)c(/C=C/n4cnc5c(N)ncnc54)c3)cc(C(F)(F)F)c2)cn1`, the IC50 in [1] was 0.295 µM; in [2], 0.0014 µM.

By clearance is commonly meant the volume of plasma or blood freed of the substance per unit of time. A high value points to efficient removal. For orientation: Vd means the apparent volume that relates the amount in the body to the concentration in plasma or blood. As a reminder, the half-life is the time needed for the level to fall by half in the phase considered. Low readings indicate rapid decline, high ones slow decline. By Cmax is commonly meant the maximum level reached in the sampled fluid or tissue. Usually Tmax stands for the time from dosing to the highest level. By bioavailability is commonly meant the share of a dose that reaches the circulation, judged against a reference dose that is usually intravenous. Lower therefore signals poor availability. As for `CCN1CCN(Cc2ccc(NC(=O)c3ccc(C)c(C#Cc4cnc5cccnn45)c3)cc2C(F)(F)F)CC1`, in [3], the clearance was 17 mL/min/kg. Further, the volume of distribution (Vd) in series [4] was found to be 13.1 L/kg. Further, the values for the half-life in series [5] and in series [9] were 8.9 h and 22.3 h, respectively. For the same compound, the AUC in series [6] was 518 ng·h/mL/mg/kg. In [7], this compound had a Cmax of 215 ng/mL. Besides, in series [8], the Tmax was determined as 6 h. This compound came in with a bioavailability in [10] of 53%. For the same compound, the IC50 in series [11] was 0.001 µM; in series [1], 0.0073 µM; in series [12], 1.16 µM. Also, the concentration at 24 h in series [13] was found to be 8.8 ng/mL. In [14], this compound yielded a concentration at 2 h of 622 ng/mL. Also, the concentration at 6 h in series [15] was 387 ng/mL.

In series [3], `CN1CCN(Cc2ccc(NC(=O)c3ccc(F)c(C#Cc4cnc5cccnn45)c3)cc2C(F)(F)F)CC1` showed a clearance of 6.17 mL/min/kg. The same compound had a Vd in series [4] of 3.1 L/kg. Also, the half-life in series [5] is 5.9 h; in series [9], 11.6 h. The AUC in series [6] is 1707.5 ng·h/mL/mg/kg. The compound also came in with a Cmax in series [7] of 1180 ng/mL. Further, the Tmax in series [8] was determined as 6 h. In addition, the bioavailability in series [10] worked out at 62.3%. The IC50 in [11] amounted to 0.0061 µM; in [1] it was 0.035 µM; in series [12] it was 6.29 µM. In addition, the concentration at 24 h in series [13] was determined as 163 ng/mL. The compound further came in with a concentration at 2 h in series [14] of 2480 ng/mL. The same compound came in with a concentration at 6 h in series [15] of 2100 ng/mL.

The term AUC(0-t) denotes the area under the concentration-time curve up to a stated or last time point. Low values mean less exposure, high ones more exposure. `Cc1ccc(C(=O)Nc2ccc(CN3CCN(CCO)CC3)c(C(F)(F)F)c2)cc1C#Cc1cnc2cccnn12`: the clearance in series [3] was 25.5 mL/min/kg. Besides, the Vd in series [4] came out at 7.7 L/kg. The values for the half-life in series [5], in series [9] and in series [17] were 3.5 h, 3.4 h and 2.4 h, respectively. This compound came in with an AUC in series [6] of 145.3 ng·h/mL/mg/kg. Besides, the Cmax worked out at 164 ng/mL in [7] and 1330 ng/mL in series [16]. In series [8], the Tmax was determined as 4 h. This compound gave a bioavailability in series [10] of 22.3%. In addition, the IC50 in [11] was determined as 0.0015 µM; in series [1], 0.014 µM; in series [12], 1.68 µM. The compound further had an AUC(0-t) at 24 h in [18] of 13700 ng·h/mL.

In series [3], `Cc1ccc(C(=O)Nc2ccc(CN3CCN(C)CC3)c(C(F)(F)F)c2)cc1C#Cc1cnc2[nH]c(=O)[nH]c2c1` showed a clearance of 40.7 mL/min/kg. The Vd in series [4] came to 17.7 L/kg. In addition, in series [5], the half-life is 5 h. For the same compound, the AUC result in series [6] (BLD = below limit of detection) is reported as “BLD”. The Cmax result in series [19] is listed as “BLD”. Besides, the IC50 in series [11] came to 0.0039 µM; in [1] it was 0.031 µM; in series [12], 1.86 µM.

`Cc1ccc(C(=O)Nc2ccc(CN3CCN(C)CC3)c(C(F)(F)F)c2)cc1C#Cc1cnc2ccccn12` showed a clearance in series [3] of 12.5 mL/min/kg. Moreover, the Vd in series [4] worked out at 11 L/kg. In addition, the half-life in series [5] is 10.2 h; in series [9] it was 24.7 h; in series [17], 2.9 h. This compound also yielded an AUC in series [6] of 386.3 ng·h/mL/mg/kg. Moreover, the values for the Cmax in series [7] and in [16] were 149 ng/mL and 986 ng/mL, respectively. The Tmax in [8] was found to be 6 h. Moreover, in series [10], the bioavailability worked out at 29%. The IC50 in series [11] is 0.0036 µM; in [1], 0.026 µM; in series [12], 1.57 µM; in series [20], 0.0059 µM. In [18], the AUC(0-t) at 24 h was found to be 11300 ng·h/mL.

In series [3], `Cc1ccc(C(=O)Nc2cc(-n3ccnc3)cc(C(F)(F)F)c2)cc1C#Cc1cnc2ccccn12` had a clearance of 1.33 mL/min/kg. The compound also came in with a Vd in [4] of 1 L/kg. Further, the half-life was 9.1 h in series [5] and 21.6 h in [9]. In addition, the AUC in series [6] turned out to be 5745.9 ng·h/mL/mg/kg. Besides, the peak level in series [7] (Cmax) was 2350 ng/mL. In series [8], the time to peak (Tmax) is 6 h. The compound also showed a bioavailability in series [10] of 42.4%. Moreover, the IC50 was 0.008 µM in [11], 0.471 µM in [1], 9.85 µM in series [12] and 0.051 µM in series [20].
